Reference: ChEMBL document CHEMBL1201862, “PubChem BioAssay data set” (2004)
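Briefly, cells in 96-well plates were exposed to five compound concentrations for 48 h, and endpoints were estimated by linear interpolation. Here, GI50 denotes the concentration required for 50% inhibition of growth.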 Active and inactive are the calls of the source. Rule as the data show it: active = GI50 up to about 1.1 µM and inactive = higher.

What was measured:
Experiment in all cases: NCI-60 cell line screen, 48 h
MDA-N = test system: MDA-N
CCRF-CEM = test system: CCRF-CEM
786-0 = test system: 786-0
NCI-H522 = test system: NCI-H522
EKVX = test system: EKVX
IGROV-1 = test system: IGROV-1
SF-295 = test system: SF-295
ACHN = test system: ACHN
K562 = test system: K562
KM12 = test system: KM12
SK-MEL-2 = test system: SK-MEL-2
UO-31 = test system: UO-31
OVCAR-8 = test system: OVCAR-8
SN12C = test system: SN12C
HL-60 = test system: HL-60
U-251 = test system: U-251
OVCAR-4 = test system: OVCAR-4
PC-3 = test system: PC-3
T47D = test system: T47D
NCI-H226 = test system: NCI-H226
SK-MEL-28 = test system: SK-MEL-28
HCT-15 = test system: HCT-15
A498 = test system: A498
UACC-62 = test system: UACC-62
SF-268 = test system: SF-268
NCI-H23 = test system: NCI-H23
HT-29 = test system: HT-29
HOP-62 = test system: HOP-62
DU-145 = test system: DU-145
BT-549 = test system: BT-549
HCT-116 = test system: HCT-116
A549 = test system: A549
RPMI-8226 = test system: RPMI-8226
SNB-19 = test system: SNB-19
M14 = test system: M14
SW-620 = test system: SW-620
NCI/ADR-RES = test system: NCI/ADR-RES
CAKI-1 = test system: CAKI-1
HOP-92 = test system: HOP-92
SF-539 = test system: SF-539
LOX IMVI = test system: LOX IMVI
RXF 393 = test system: RXF 393
NCI-H460 = test system: NCI-H460
TK-10 = test system: TK-10
OVCAR-3 = test system: OVCAR-3
OVCAR-5 = test system: OVCAR-5
COLO 205 = test system: COLO 205
UACC-257 = test system: UACC-257
SK-OV-3 = test system: SK-OV-3
SK-MEL-5 = test system: SK-MEL-5
MDA-MB-435 = test system: MDA-MB-435
MOLT-4 = test system: MOLT-4
SR = test system: SR
MDA-MB-231 = test system: MDA-MB-231
Hs-578T = test system: Hs-578T
MCF7 = test system: MCF7
Malme-3M = test system: Malme-3M
HCC 2998 = test system: HCC 2998
SNB-75 = test system: SNB-75

CCCCCCc1cc2cc(-c3cn4ccccc4n3)c(=O)oc2cc1O
GI50 (MDA-N): 6.17 µM (inactive)
GI50 (CCRF-CEM): 19.5 µM (inactive)
GI50 (786-0): 2.12 µM (inactive)
GI50 (NCI-H522): 5.37 µM (inactive)
GI50 (EKVX): 18.4 µM (inactive)
GI50 (IGROV-1): 11.2 µM (inactive)
GI50 (SF-295): 15.1 µM (inactive)
GI50 (ACHN): 18 µM (inactive)
GI50 (K562): 4.61 µM (inactive)
GI50 (KM12): 16.1 µM (inactive)
GI50 (SK-MEL-2): 13.6 µM (inactive)
GI50 (UO-31): 8.39 µM (inactive)
GI50 (OVCAR-8): 6.3 µM (inactive)
GI50 (SN12C): 5.35 µM (inactive)
GI50 (HL-60): 30.7 µM (inactive)
GI50 (U-251): 3.56 µM (inactive)
GI50 (OVCAR-4): 4.66 µM (inactive)
GI50 (PC-3): 18.7 µM (inactive)
GI50 (T47D): 19.2 µM (inactive)
GI50 (NCI-H226): 19.1 µM (inactive)
GI50 (SK-MEL-28): 9.14 µM (inactive)
GI50 (HCT-15): 5.66 µM
GI50 (A498): 20.1 µM (inactive)
GI50 (UACC-62): 8.17 µM (inactive)
GI50 (SF-268): 2.32 µM (inactive)
GI50 (NCI-H23): 5.66 µM (inactive)
GI50 (HT-29): > 55.8 µM (inactive)
GI50 (HOP-62): 11.8 µM (inactive)
GI50 (DU-145): 5.11 µM (inactive)
GI50 (BT-549): 10.1 µM (inactive)
GI50 (HCT-116): 4.55 µM (inactive)
GI50 (A549): 16.5 µM (inactive)
GI50 (RPMI-8226): 3.68 µM (inactive)
GI50 (SNB-19): 13.2 µM (inactive)
GI50 (M14): 5.52 µM (inactive)
GI50 (SW-620): 9.93 µM (inactive)
GI50 (NCI/ADR-RES): 5.26 µM (inactive)
GI50 (CAKI-1): 4.67 µM (inactive)
GI50 (HOP-92): 15.5 µM (inactive)
GI50 (SF-539): 2.76 µM (inactive)
GI50 (LOX IMVI): 4.72 µM (inactive)
GI50 (RXF 393): 4.14 µM (inactive)
GI50 (NCI-H460): 15 µM (inactive)
GI50 (TK-10): 15.5 µM (inactive)
GI50 (OVCAR-3): 4.38 µM (inactive)
GI50 (OVCAR-5): 21.8 µM (inactive)
GI50 (COLO 205): > 100 µM (inactive)
GI50 (UACC-257): 18.1 µM (inactive)
GI50 (SK-OV-3): 13.6 µM (inactive)
GI50 (SK-MEL-5): 8.95 µM (inactive)
GI50 (MDA-MB-435): 5.24 µM (inactive)
GI50 (MOLT-4): 7.91 µM (inactive)
GI50 (SR): 5.57 µM (inactive)
GI50 (MDA-MB-231): 3.27 µM (inactive)
GI50 (Hs-578T): 4.14 µM (inactive)
GI50 (MCF7): 5.43 µM (inactive)
GI50 (Malme-3M): 1.71 µM (inactive)
GI50 (HCC 2998): 18.4 µM (inactive)
GI50 (SNB-75): 3.14 µM (inactive)

C=CC1(CBr)CCC(C(C)(C)Br)O1 (stereo not drawn)
GI50 (MDA-N): 8.57 µM (inactive)
GI50 (CCRF-CEM): 2.08 µM (inactive)
GI50 (786-0): 1.79 µM (inactive)
GI50 (NCI-H522): 2.51 µM (inactive)
GI50 (EKVX): 18 µM (inactive)
GI50 (IGROV-1): 8.13 µM (inactive)
GI50 (SF-295): 12.3 µM (inactive)
GI50 (ACHN): 16.4 µM (inactive)
GI50 (K562): 3.71 µM (inactive)
GI50 (KM12): 12.2 µM (inactive)
GI50 (SK-MEL-2): 12.8 µM (inactive)
GI50 (UO-31): 12.7 µM (inactive)
GI50 (OVCAR-8): 2.9 µM (inactive)
GI50 (SN12C): 16.6 µM (inactive)
GI50 (HL-60): 0.832 µM (active)
GI50 (U-251): 6.27 µM (inactive)
GI50 (OVCAR-4): 14.3 µM (inactive)
GI50 (PC-3): 12 µM (inactive)
GI50 (T47D): 2.28 µM (inactive)
GI50 (NCI-H226): 21 µM (inactive)
GI50 (SK-MEL-28): 7.73 µM (inactive)
GI50 (HCT-15): 6.64 µM
GI50 (A498): 19.1 µM (inactive)
GI50 (UACC-62): 10.3 µM (inactive)
GI50 (SF-268): 15.7 µM (inactive)
GI50 (NCI-H23): 6.98 µM (inactive)
GI50 (HT-29): 5.77 µM (inactive)
GI50 (HOP-62): 15.9 µM (inactive)
GI50 (DU-145): 10 µM (inactive)
GI50 (BT-549): 16.7 µM (inactive)
GI50 (HCT-116): 6.64 µM (inactive)
GI50 (A549): 17.3 µM (inactive)
GI50 (RPMI-8226): 1.79 µM (inactive)
GI50 (SNB-19): 15.8 µM (inactive)
GI50 (M14): 13.1 µM (inactive)
GI50 (SW-620): 3.56 µM (inactive)
GI50 (NCI/ADR-RES): 10.1 µM (inactive)
GI50 (CAKI-1): 7.23 µM (inactive)
GI50 (HOP-92): 14.9 µM (inactive)
GI50 (SF-539): 16.9 µM (inactive)
GI50 (LOX IMVI): 1.74 µM (inactive)
GI50 (RXF 393): 13.7 µM (inactive)
GI50 (NCI-H460): 13 µM (inactive)
GI50 (TK-10): 15.1 µM (inactive)
GI50 (OVCAR-3): 9.42 µM (inactive)
GI50 (OVCAR-5): 14.7 µM (inactive)
GI50 (COLO 205): 5.43 µM (inactive)
GI50 (UACC-257): 13.7 µM (inactive)
GI50 (SK-OV-3): 14.5 µM (inactive)
GI50 (SK-MEL-5): 9.86 µM (inactive)
GI50 (MDA-MB-435): 12.6 µM (inactive)
GI50 (MOLT-4): 2.21 µM (inactive)
GI50 (SR): 2.52 µM (inactive)
GI50 (MDA-MB-231): 13.2 µM (inactive)
GI50 (Hs-578T): 12.6 µM (inactive)
GI50 (MCF7): 15.6 µM (inactive)
GI50 (Malme-3M): 13.7 µM (inactive)
GI50 (HCC 2998): 16.6 µM (inactive)
GI50 (SNB-75): 5.65 µM (inactive)
